Where “and” joins values, the source holds several entries; their conditions need not be identical. Equal values may be shown once. Entries after “also recorded” stand apart in the source; their conditions may differ.
Columns and labels:
Type in all cases: in vivo, human
[1] = test system: solid malignancies (tumor neovasculature); assay: DCE-MRI (Ktr) in CA4P clinical trials
Description: The results in the CA4P trials were variable. In DCE-MRI, the rate constant Ktrans (Ktr), representing the rate of passage of gadolinium from the plasma into the tumor interstitium, is determined. Ktr itself is determined as a function of both tumor blood flow and vascular permeability, thus serving as a marker of the status of the tumor neovasculature.

[2] = Phase II study of sorafenib: adverse events (CTCAE v3.0), dose changes, TSH
Excerpt: (§1) This was an open-label, single institution phase II study of oral sorafenib in patients with metastatic thyroid carcinoma, including differentiated, poorly differentiated, medullary, and anaplastic subtypes. […] A cycle was defined as 4 weeks. Screening evaluations were completed within 2 weeks prior to the start of study drug, including medical history, demography, review of prior treatment, physical exam, 12-lead EKG, and laboratory evaluations including serum thyroid stimulating hormone (TSH) and thyroglobulin, and urinalysis. Radiological tests to identify target lesions were performed within 4 weeks of the first dose of study drug.
(§2) After beginning treatment, patients were followed at four-week intervals. At each visit, a history and physical examination were performed, and a CBC, chemistry panel, TSH and thyroglobulin drawn. Patients were assessed for new symptoms, compliance with study medications (pill count), and concomitant medications. Dose adjustments were made as needed for toxicity. Response was assessed radiographically after eight and sixteen weeks of treatment and every twelve weeks thereafter.
(§3) The study endpoints of best objective response rate and stable disease were measured based on the findings on computed tomography (CT) or magnetic resonance imaging (MRI) using RECIST. Additional endpoints included best response, duration of response and time to disease progression (TTP) on the basis of RECIST, clinical progression, or death. While TTP was the original endpoint, PFS and TTP were identical in this study, and PFS have been used in this report as it has become the more standard progression endpoint. All responses were confirmed by a study-designated radiologist. Adverse events were graded with the use of Common Terminology Criteria for Adverse Events, version 3.0 (CTCAE v3.0).

[3] = test system: metastatic papillary thyroid carcinoma (mPTC); assay: Response by CT and PET scan in two patients with metastatic papillary thyroid carcinoma on sorafenib
Description: Patient 1: A person palpated a right-sided neck mass in August 2004. The patient underwent total thyroidectomy with lymph node dissection and pathology confirmed mPTC in one of eight lymph nodes. They were treated with ^131I and placed on thyroid hormone replacement. In August 2005, an enlarged lymph node was palpated in their neck.
Treatment began on Apr. 18, 2006. Toxicity was assessed at every four weeks and response to treatment was assessed using serial CT and PET scans.
Patient 2: A person presented with a sore throat in March 2002. Their physician noted only right sided cervical lymphadenopathy. […] Thyroidectomy and right neck lymph node dissection removed a 2.5 cm tall-cell PTC with 12 of 49 lymph nodes containing mPTC.
PET scans were obtained on a dedicated whole-body PET scanner (C-PET, Phillips). At FDG injection, patients had fasted for 6 hours and blood glucose levels were less than 150 mg/dL. Image acquisition started 60 min following intravenous administration of FDG at a dose of 1.85 MBq/kg (0.05 mCi/kg) body weight. A transmission scan was obtained for attenuation correction.

serum thyroglobulin = assay: Serum thyroglobulin (sTG) monitoring in patients on sorafenib
Excerpt: as §1, §2
sTG levels are monitored monthly as part of the clinical trial. As sTG can rise due inadequate suppression of TSH, sTG levels are analyzed in the context of the serum TSH. In patients where […]. In addition, high levels of anti sTG antibodies can render the sTG levels un-interpretable. To date one patient has TSH that was not adequately controlled, and a second patient with anti sTG antibodies in excess of 1000 IU/ml. These patients are excluded from this analysis. sTG levels are correlated with clinical outcomes, and results of imaging and tissue analysis as described in the section on statistical analysis below.

[4] = test system: metastatic thyroid carcinoma; assay: Open-label phase II study of oral sorafenib in metastatic thyroid carcinoma: best response by RECIST, PFS/TTP
Excerpt: Eligible patients were >18 years old with metastatic or unresectable thyroid carcinoma for which curative measures were no longer effective. Patients had evidence of measurable disease by RECIST criteria. All patients enrolled had evidence of disease progression in the year prior to initiation of treatment. Prior radioactive iodine treatments and one prior biologic treatment (kinase inhibitor, vaccine or antibody-based therapy) were allowed, but not within 3 weeks of treatment. […] Pre-menopausal women were required to have a negative pregnancy test and all patients of were required to use contraception.
Patients were ineligible if they had previous exposure to a Ras pathway inhibitor (including trastuzumab, EGFR inhibitors, farnesyl transferase inhibitors or MEK inhibitors) or were unable to swallow and retain oral pills. All patients provided written informed consent prior to enrollment on the trial. The study protocol was approved by the Institutional Review Board of the University of Pennsylvania.
as §1, §2, §3
This study was designed to exclude the null hypothesis response rate of 5% using a Simon two-stage design; the first stage included 30 patients, with an optional second stage including 25 additional patients if at least one response was observed. The observed response rate was tested against the null rate of 5% using an exact test for binomial proportions. Estimates of PFS (time from beginning on study drug to earlier of progression or death) with associated 95% confidence intervals were obtained using the method of Kaplan and Meier. Comparison of PFS among histological subtypes was conducted using the logrank test. All enrolled patients who received at least one day of treatment were included in this intent-to-treat analysis.
2) Evidence of measurable disease by RECIST criteria 3) Any number of prior radioactive iodine treatments and up to one prior biologic treatment.
Primary Endpoint: Efficacy of sorafenib (objective response rate) in patients with metastatic thyroid carcinoma.
Patients on study were monitored with CT scans every 2 months and PET scans prior to beginning therapy and 4 weeks after starting treatment. […]

p-AKT = assay: Immunohistochemistry of patient tumor tissue before and on sorafenib: p-AKT
Excerpt: (§4) Paraffin embedded tumor specimens from the patients' primary surgery and from lymph node biopsies after two weeks (Patient 1) and 17 months on treatment (Patient 2) were obtained. Thin (5 μm) sections from tumor tissue were cut and stained for the proliferation marker Ki-67 (Dakocytomation), and signaling markers p-ERK and p-AKT (Cell Signaling Technology) which are downstream indicators of BRAF and VEGFR2 activity. P-ERK is good reporter for BRAF activity, while p-AKT likely reflects signaling through several pathways including VEGFR. Slides were counterstained with hematoxylin and mounted in vectashield (Vector Labs). Two independent, blinded pathologists scored the slides based on intensity of stain and percent of cells staining positively.
(§5) Proliferation and cellular signaling in the tumor cell (TC) and the endothelial cell (EC) compartments were evaluated by immunohistochemistry (IHC).

p-ERK = assay: Immunohistochemistry of patient tumor tissue before and on sorafenib: p-ERK
Excerpt: as §4, §5

Ki-67 = assay: Immunohistochemistry of patient tumor tissue before and on sorafenib: Ki-67
Excerpt: as §4, §5

[5] = Table 3 summary, 42 total / 31 evaluable patients
[6] = first 30 patients as of May 25, 2008, follow-up Kaplan-Meier analysis
[7] = first 30 patients, intention-to-treat
[8] = first 30 patients, intention-to-treat, 400 mg orally twice a day
[9] = Patient 1, after 2 weeks of treatment
[10] = Patient 2, after 17 months of treatment

COc1ccc(/C=C\c2cc(OC)c(OC)c(OC)c2)cc1OP(=O)(O)O [CA4P]
Ktr response ([1]; certain patients, larger pre-treatment tumor Ktr values, incl. two with thyroid cancer): Strong Ktr responses | Ktr response ([1]; other patients): little or no effect

CNC(=O)c1cc(Oc2ccc(NC(=O)Nc3ccc(Cl)c(C(F)(F)F)c3)cc2)ccn1 [sorafenib]
Patients requiring drug holidays due to adverse events ([2]; 30 patients): 63% | Patients who discontinued treatment due to adverse events ([2]; 30 patients): 20% | Patients who experienced some weight loss ([2]; 30 patients): 60% | Patients with doses reduced to control toxicities ([2]; 30 patients): 47% | Toxicity leading to withdrawal, single patients ([2]; CTCAE grade): grade 3 rash; also recorded: grade 2 fatigue; also recorded: grade 4 liver toxicity | Severity of treatment-related adverse events ([2]; CTCAE v3.0): predominantly of grade 1 or 2 | Patients WD due to toxicity, number ([2]; Table 3 summary, 42 total patients): 2 | Outcome of LFT elevations after eight weeks, one patient ([2]; despite dose reductions and cessation): died of liver failure | Patients with rise in serum TSH to levels greater than 0.10 mIU/L ([2]; while on sorafenib, 30 patients): 33% | Progression-free survival ([3]; Patient 1): ≥ 1.3 years | Decrease of target lesions (PR) ([3]; Patient 1, after 12 months): 30% | Decrease in size of lung lesions by RECIST ([3]; Patient 1, after 12 weeks): 25% | Progression-free survival ([3]; Patient 2): ≥ 3.7 years | Maintained partial response ([3]; Patient 2, after 3.7 years on sorafenib): 70% | Decrease of largest target lesion ([3]; Patient 2, after 12 weeks): 52% | Decrease of largest target lesion ([3]; Patient 2, continued shrinkage after 20 weeks): 72% | Patients with marked response in serum thyroglobulin levels (serum thyroglobulin; Seventeen of 19 patients with serial levels): 95% | Thyroglobulin levels (serum thyroglobulin; approximately 15 new patients enrolled since November 2008, iodine non-avid metastatic thyroid cancer): increased | Iodine uptake (serum thyroglobulin; inferred from thyroglobulin levels, iodine non-avid metastatic thyroid cancer): effective in increasing the iodine uptake | Course of sTG early on treatment (serum thyroglobulin; most patients, first two to four months): falls precipitously; also recorded: dropped precipitously | Initial decline of serum thyroglobulin (sTG) (serum thyroglobulin; patient 5, stably suppressed TSH, FIG. 4): 25 % baseline levels | Mean decrease in serum thyroglobulin (serum thyroglobulin; within four months of starting treatment): 70% | Clinical benefit (PR + SD) rate [4, 5]: 72% | Clinical benefit (PR + SD), number of patients [4, 5]: 13 | Partial response (≧30%) rate [4, 5]: 24% | Partial response (≧30%), number of patients [4, 5]: 10 | Stable disease rate [4, 5]: 48% | Stable disease, number of patients [4, 5]: 19 | Overall median progression free survival ([4]; all 30 patients, Kaplan-Meier, analysis four months after last patient started): 79 weeks and 79.0 weeks | DTC patients median progression free survival ([4]; differentiated thyroid cancers alone, Kaplan-Meier): 84 weeks | Largest decrease in target lesions by RECIST (upper end of range of responses) ([4]; first 30 patients): 80% | Median time to progression / PFS, all patients [4, 6]: 72 weeks | Median time to progression / PFS, differentiated thyroid cancers (DTC) [4, 6]: 84 weeks | Clinical benefit (PR + SD), number of patients [4, 7]: 23 | Partial response (PR, ≧30%), number of patients [4, 7]: 7 | Progressive disease as best response, number of patients [4, 7]: 2 | Progressive disease as best response, rate [4, 7]: (3%) | Stable disease (SD), number of patients [4, 7]: 16 | Best response by RECIST: complete response rate [4, 8]: (0%) | Best response by RECIST: complete response, number of patients [4, 8]: 0 | Decrease in size of visible shoulder nodule ([4]; patient with poorly differentiated thyroid cancer, at 4 weeks, before progression): 50% | CT response of target lesions, lung metastases ([4]; person, follicular thyroid cancer, after 16 weeks, FIG. 3A): partial response | CT burden of lung disease ([4]; person, papillary thyroid cancer, miliary lung metastases, after 33 weeks, FIG. 3B): marked improvement | Disease symptoms (cough, dyspnea on exertion) ([4]; two patients of FIG. 3, within the first six months of treatment): complete resolution of their symptoms | p-AKT staining in ECs (p-AKT; [9]): decreased | p-AKT staining in TCs (p-AKT; [9]): did not show any change | p-AKT staining in ECs and TCs (p-AKT; Patient 2, at 17 months): slight increase | p-ERK staining in ECs (p-ERK; [9]): no longer detected | p-ERK staining in TCs (p-ERK; [9]): decreased | p-ERK expression in ECs (p-ERK; [10]): markedly increased | p-ERK staining in TCs (p-ERK; [10]): unchanged | Ki-67 positive cells (Ki-67; Patient 1, tissue after two weeks of treatment (pre-treatment 1% of TCs)): less than 1% | Ki-67 positive TCs versus pre-treatment (Ki-67; [10]): no change in the number of positive cells
